Laboratory results reported in ChEMBL document CHEMBL1201862, “PubChem BioAssay data set” (2004).
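48-hour exposure; five concentrations; linearly interpolated endpoints. GI50: concentration for 50% inhibition of growth.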 Calls of active or inactive are those of the source. No stated cut-off is given here; in the data, active = GI50 up to about 1.1 µM and inactive = higher.

What was measured:
Assay in all cases: inhibition of tumour cell growth, NCI panel, 48 h
NCI-H226 = tested on: NCI-H226
HL-60 = tested on: HL-60
SF-295 = tested on: SF-295
RPMI-8226 = tested on: RPMI-8226
HT-29 = tested on: HT-29
OVCAR-3 = tested on: OVCAR-3
IGROV-1 = tested on: IGROV-1
CAKI-1 = tested on: CAKI-1
HOP-62 = tested on: HOP-62
CCRF-CEM = tested on: CCRF-CEM
SN12C = tested on: SN12C
UACC-62 = tested on: UACC-62
PC-3 = tested on: PC-3
M14 = tested on: M14
LOX IMVI = tested on: LOX IMVI
OVCAR-8 = tested on: OVCAR-8
Hs-578T = tested on: Hs-578T
SNB-75 = tested on: SNB-75
KM12 = tested on: KM12
NCI-H23 = tested on: NCI-H23
SR = tested on: SR
OVCAR-5 = tested on: OVCAR-5
HCC 2998 = tested on: HCC 2998
Malme-3M = tested on: Malme-3M
RXF 393 = tested on: RXF 393
SK-MEL-5 = tested on: SK-MEL-5
UACC-257 = tested on: UACC-257
DU-145 = tested on: DU-145
MCF7 = tested on: MCF7
MDA-N = tested on: MDA-N
786-0 = tested on: 786-0
NCI-H460 = tested on: NCI-H460
HCT-116 = tested on: HCT-116
SF-268 = tested on: SF-268
TK-10 = tested on: TK-10
SF-539 = tested on: SF-539
MDA-MB-231 = tested on: MDA-MB-231
SNB-19 = tested on: SNB-19
HOP-92 = tested on: HOP-92
ACHN = tested on: ACHN
OVCAR-4 = tested on: OVCAR-4
U-251 = tested on: U-251
NCI-H522 = tested on: NCI-H522
T47D = tested on: T47D
K562 = tested on: K562
A549 = tested on: A549
MDA-MB-435 = tested on: MDA-MB-435
BT-549 = tested on: BT-549
SW-620 = tested on: SW-620
NCI/ADR-RES = tested on: NCI/ADR-RES
MOLT-4 = tested on: MOLT-4
HCT-15 = tested on: HCT-15
A498 = tested on: A498
UO-31 = tested on: UO-31
SK-MEL-28 = tested on: SK-MEL-28
EKVX = tested on: EKVX
SK-OV-3 = tested on: SK-OV-3
SK-MEL-2 = tested on: SK-MEL-2
COLO 205 = tested on: COLO 205

Measured: GI50

O=C(c1ccc([N+](=O)[O-])cc1)N1CCCC1
> 100 µM: HCT-15
inactive: NCI-H226 > 100 µM | HL-60 > 100 µM | SF-295 > 100 µM | RPMI-8226 > 100 µM | HT-29 > 100 µM | OVCAR-3 > 100 µM | IGROV-1 > 100 µM | CAKI-1 > 100 µM | HOP-62 > 100 µM | CCRF-CEM > 100 µM | SN12C 17.7 µM | UACC-62 66.1 µM | PC-3 > 100 µM | M14 > 100 µM | LOX IMVI > 100 µM | OVCAR-8 > 100 µM | Hs-578T > 100 µM | SNB-75 > 100 µM | KM12 > 100 µM | NCI-H23 > 100 µM | SR > 100 µM | OVCAR-5 > 100 µM | HCC 2998 > 100 µM | Malme-3M > 100 µM | RXF 393 > 100 µM | SK-MEL-5 > 100 µM | UACC-257 > 100 µM | DU-145 > 100 µM | MCF7 > 100 µM | MDA-N > 100 µM | 786-0 > 100 µM | NCI-H460 > 100 µM | HCT-116 > 100 µM | SF-268 > 100 µM | TK-10 86.1 µM | SF-539 > 100 µM | MDA-MB-231 > 100 µM | SNB-19 > 100 µM | HOP-92 > 100 µM | ACHN > 100 µM | OVCAR-4 > 100 µM | U-251 > 100 µM | NCI-H522 > 100 µM | T47D > 100 µM | K562 > 100 µM | A549 > 100 µM | MDA-MB-435 > 100 µM | BT-549 > 100 µM | SW-620 > 100 µM | NCI/ADR-RES > 100 µM | MOLT-4 > 100 µM | A498 > 100 µM | UO-31 > 100 µM | SK-MEL-28 > 100 µM | EKVX > 100 µM

COC(=O)C1=NN2c3ccccc3CN([C@@H](C)c3ccccc3)C(=O)[C@@H]2[C@H]1c1ccccc1
> 100 µM: HCT-15
inactive: NCI-H226 > 100 µM | HL-60 > 100 µM | SF-295 > 100 µM | HT-29 > 100 µM | OVCAR-3 > 100 µM | CAKI-1 > 100 µM | HOP-62 > 100 µM | CCRF-CEM > 100 µM | SN12C > 100 µM | UACC-62 > 100 µM | PC-3 21.3 µM | M14 > 100 µM | LOX IMVI > 100 µM | SK-OV-3 > 100 µM | OVCAR-8 > 100 µM | Hs-578T > 100 µM | SNB-75 30.3 µM | KM12 > 100 µM | NCI-H23 > 100 µM | SR 63 µM | OVCAR-5 > 100 µM | HCC 2998 > 100 µM | Malme-3M > 100 µM | RXF 393 > 100 µM | SK-MEL-5 > 100 µM | UACC-257 > 100 µM | DU-145 > 100 µM | MCF7 > 100 µM | MDA-N > 100 µM | 786-0 > 100 µM | NCI-H460 > 100 µM | HCT-116 > 100 µM | SF-268 > 100 µM | TK-10 > 100 µM | SF-539 > 100 µM | MDA-MB-231 > 100 µM | SNB-19 > 100 µM | SK-MEL-2 > 100 µM | HOP-92 > 100 µM | ACHN > 100 µM | OVCAR-4 > 100 µM | U-251 > 100 µM | NCI-H522 43.4 µM | T47D 9.75 µM | K562 13.3 µM | A549 > 100 µM | MDA-MB-435 > 100 µM | COLO 205 > 100 µM | BT-549 > 100 µM | SW-620 > 100 µM | NCI/ADR-RES 32.1 µM | MOLT-4 5.66 µM | A498 > 100 µM | UO-31 > 100 µM | SK-MEL-28 > 100 µM | EKVX > 100 µM
